Where a SMILES comes first, the peptide text is derived from it. The star is where a group is joined. Palmitoyl = CCCCCCCCCCCCCCCC(=O)*
Tested on: baboon arterial thrombosis (platelet deposition)
Experiment: Baboon arterial-venous shunt Dacron graft thrombosis
Format: in vivo, baboon (Papio anubis)
Protocol: 10-14 kg baboons were administered 3 mg/kg or 6 mg/kg PZ-128 by a 45 min iv infusion versus 5% dextrose vehicle (n=2-6). A, Net platelet accumulation was measured during the first 60 minutes of thrombus growth on a femoral arterio-venous Dacron graft (4 mm ID) inserted between silicone rubber tubing segments comprising a high-flow shunt. Blood flow was maintained at 100 ml/min by distal clamping the shunt. Autologous platelets were radiolabeled with indium-111 (1 mCi), and reinjected into the animals before thrombosis experiments. B, Deposition of platelets (mean±SD) was quantified in the head plus tail regions of the thrombus by 111Indium-labeled platelet imaging with 5-minute data acquisition periods starting at 60 min after initiation of the infusion. Statistical significance was determined using a variance stabilizing LN (natural log) transformation and a repeated measures mixed effects model with an autoregressive covariance structure. Subjects (individual baboons) were included in the model as a random effect. P=0.606 for 3 mg/kg vs vehicle and P=0.0028 for 6 mg/kg vs vehicle.
Baboon arterial thrombosis experiments were conducted to determine whether the PZ-128 micelles had the potential to inhibit arterial thrombosis in primates. An arterial-venous shunt equipped with a Dacron vascular graft with an internal lumen diameter of 4 mm at a high flow rate of 100 ml/min was used. Thrombogenesis was assessed by measuring platelet content of the head and tail regions of the developing thrombus (FIG. 4A) and quantified by ^111Indium-labeled platelet imaging over 60 min. PZ-128 micelles at a dose of 1 mg/kg had no effect on platelet-thrombus deposition in the baboon.
Non-terminal thrombosis and platelet aggregation studies were performed on 12 healthy male baboons (Papio anubis) weighing 9-12 kg at the Oregon National Primate Research Center (ONPRC). […] Platelet counts and hematocrit were measured immediately. […]

SMILES: CCCCCCCCCCCCCCCC(=O)N[C@@H](CCCCN)C(=O)N[C@@H](CCCCN)C(=O)N[C@@H](CO)C(=O)N[C@@H](CCCNC(=N)N)C(=O)N[C@@H](C)C(=O)N[C@@H](CC(C)C)C(=O)N[C@@H](Cc1ccccc1)C(N)=O [PZ-128, palmitate-KKSRALF-NH2] (Palmitoyl-KKSRALF-NH2)
- Effect on platelet-thrombus deposition (1 mg/kg): no effect
- Effect against platelet arterial thrombus formation vs vehicle (3 mg/kg iv infusion, P=0.606): not significant
- Effect against platelet arterial thrombus formation vs vehicle (6 mg/kg iv infusion, P=0.0028): significant protective effect
